Measured values: patent US4535079A, “Alkanolaminoxy derivatives of 3,4-dihydro-2H-1,4-benzothiazin-3-one, their production process, and their pharmaceutical use” (Mediolanum Farmaceutici S.R.L., priority 1982, dated 1985)
Counter-ions that a name gives are not always drawn.

Experiments:
[1] = tested on: beta-adrenergic cardiac receptors (isolated guinea pig atrium); test: Beta-blocking activity: isolated guinea pig atrium method; details: concentration inhibiting 25% of the response to isoprenaline, 29° C., 10 minutes before isoprenaline
Procedure: (a) Beta-blocking activity: isolated guinea pig atrium method
The compounds under examination were tested on the isolated guinea pig atrium for their capacity to antagonise the positive inotropic and chronotropic effects induced by isoprenaline. The preparations were made up from native guinea pigs weighing 450±50 g and suspended in a 10 ml bath of oxygenated Tyrode maintained at 29° C., the frequency and force of contraction being recorded by means of an isotonic pen loaded with 1.5 g and having an amplification ratio of 1:15. The substance under test was added to the medium in a volume of 0.1 ml 10 minutes before stimulation by isoprenalina administered at the optimum concentration which had been determined on the basis of the reactivity of the preparation.

[2] = LD50 in the male Wistar rat by intravenous administration; details: in vivo, i.v.
[3] = tested on: isolated guinea pig trachea; test: Beta-blocking activity by the isolated guinea pig trachea method; details: concentration able to inhibit 50% of the response; 37° C., 12 minutes before stimulation
Procedure: (b) Beta-blocking activity by the isolated guinea pig trachea method
The series was also tested for beta-blocking activity at the level of the isolated guinea pig trachea, evaluated as antagonism to the effect of isoprenaline.
A trachea segment was withdrawn from animals weighing 450±50 g, and a spiral of tissue was prepared and then suspended in a 20 ml bath of oxygenated Tyrode containing 10^-7 g/ml of acetylcholine and […] of eserine, the bath being temperature-controlled at 37° C. The recording was made by means of an isotonic pen with maximum amplification,loaded to 0.5 g and constantly cibrated.
Having determined the sub-maximum concentration of isoprenaline for stimulating the preparation, the test substance was placed in contact with it at different concentrations 12 minutes before stimulation, then evaluating the antagonistic effect.

guinea pig = test: Protection from the lethal effect of aconitine in the guinea pig; assay type: in vivo; details: Cavia porcellus, 10 min, intravenous, 10 minutes before aconitine perfusion, read-out: percentage increase in the time of death by aconitine with respect to the control animals; for change in vivo at 0.01 mg/kg: dose 10 μg/kg; for change in vivo at 0.02 mg/kg: dose 20 μg/kg; for change in vivo at 0.015 mg/kg: dose 15 μg/kg; for change in vivo at 0.025 mg/kg: dose 25 μg/kg; for change in vivo at 0.009 mg/kg: dose 9 μg/kg
Procedure: Protection from the methal effect of aconitine in the guinea pig. For the compounds according to the invention, an evaluation was made of their capacity to antagonise the lethal effect of aconitine in native guinea pigs of both sexes having an average weight of 400±50 g, anesthetized with 10% ethylurethan (1 g/kg i.p.), by making an E.C.G. precardiacal recording. Death was induced by perfusing aconitine through the jugular at a dose of 150 γ/kg/hour (5 ml/hour). The time of commencement of arrhythmia, the time of commencement of fibrillation and the time of death were checked. The product under examination were administered to the jugular vein 10 minutes before commencement of perfusion in doses from 0.01 mg/kg to 10 mg/kg.

| Structure (SMILES) | IC25, positive chronotropic effect with isoprenaline [1] [µg/mL] | IC25, positive inotropic effect with isoprenaline [1] [µg/mL] | LD50 [2] [mg/kg] | IC50, antagonism in the response of the isolated guinea pig trachea to isoprenaline [3] [µg/mL] | change in vivo at 0.01 mg/kg (guinea pig) [%] | change in vivo at 0.02 mg/kg (guinea pig) [%] | change in vivo at 0.015 mg/kg (guinea pig) [%] | change in vivo at 0.025 mg/kg (guinea pig) [%] | change in vivo at 0.009 mg/kg (guinea pig) [%] |
| --- | --- | --- | --- | --- | --- | --- | --- | --- | --- |
| CC(C)(C)NCC(O)COc1cccc2c1CCC(=O)N2 (stereo not drawn) [Carteolol, 5-(3-tert.butylamino-2-hydroxy-propoxy)-3,4-dihydro-carbostyryl-hydrochloride, reference compound] | 0.00905 | 0.00173 | 50 | – | – | – | – | – | – |
| CC(C)(C)NCC(O)COc1ccc2c(c1)SCC(=O)N2 (stereo not drawn) [Compound XIII, 7-(3-tert.butylamino-2-hydroxy)-propoxy-3,4-dihydro-2H-1,4-benzothiazin-3-one] | 0.0703 | 0.0565 | 60 | 0.125 | 39.7 | – | – | – | – |
| CC(C)CNCC(O)COc1ccc2c(c1)SCC(=O)N2 (stereo not drawn) [Compound XII] | 0.55 | 0.361 | 82 | 0.806 | – | 16.4 | – | – | – |
| CC(C)NCC(O)COc1ccc2c(c1)SCC(=O)N2 (stereo not drawn) [Compound XI] | 0.091 | 0.0743 | 65 | 0.76 | – | – | 21.3 | – | – |
| CCC(C)NCC(O)COc1ccc2c(c1)NC(=O)CS2 (stereo not drawn) [Compound X] | 0.803 | 0.67 | 78 | 0.66 | – | – | – | 11.3 | – |
| CC(C)(C)NCC(O)COc1ccc2c(c1)NC(=O)CS2 (stereo not drawn) [IX] | 0.255 | 0.203 | 75 | 0.568 | 25.9 | – | – | – | – |
| CC(C)CNCC(O)COc1ccc2c(c1)NC(=O)CS2 (stereo not drawn) [VIII] | 0.861 | 0.741 | 83 | 1.14 | – | 19 | – | – | – |
| CC(C)NCC(O)COc1ccc2c(c1)NC(=O)CS2 (stereo not drawn) [VII] | 0.415 | 0.346 | 80 | 0.43 | – | – | – | 24.1 | – |
| CCC(C)NCC(O)COc1ccc2c(c1)SCC(=O)N2 (stereo not drawn) [XIV] | 0.202 | 0.0978 | 68 | 0.25 | – | – | 20.6 | – | – |
| CCC(C)NCC(O)COc1cccc2c1SCC(=O)N2 (stereo not drawn) [XVIII] | 0.803 | 0.0705 | 75 | 1.21 | 49.2 | – | – | – | – |
| CC(C)(C)NCC(O)COc1cccc2c1SCC(=O)N2 (stereo not drawn) [XVII] | 0.000992 | 0.000276 | 50 | 0.0015 | – | – | – | – | 55.4 |
| CC(C)CNCC(O)COc1cccc2c1SCC(=O)N2 (stereo not drawn) [XVI] | 0.13 | 0.0995 | 67 | 0.112 | 32.2 | – | – | – | – |
| CC(C)NCC(O)COc1cccc2c1SCC(=O)N2 (stereo not drawn) [XV] | 0.0641 | 0.0587 | 73 | 0.123 | – | – | – | – | 48.6 |
